Test system: cortical septin structures in MV3 cells
Test: Cortical septin localization (SEPT6-GFP) in MV3 cells
Assay type: cell-based, human
Conditions: MV3 SEPT6-GFP; WGA (50 ug/ml), VitroGel, H1152 (1 μM), NSC668394 (10 μM)
Method: Cells Embedded in 3D Collagen.
Cells Grown in VitroGel Coffins. VitroGel coffins were prepared by embedding MV3 or A375 cells in VitroGel 3D or RGD at 1:1 dilution according to manufacturer's instructions (TheWell Biosciences, sku #TWG001). […] A 1:1 solution of VitroGel and VitroGel Dilution Solution was made and added to cell suspension at a ratio of 4:1 (VitroGel: cells) using gentle pipetting until well-mixed (with care taken not to form bubbles). Cell/VitroGel solution was transferred to an 8-well uncoated ibidi μ-slide (ibidi cat #80821) at 100 μl/well, spread over the bottom of wells with a pipette tip, and allowed to polymerize at room temperature for 15 minutes. The remainder of the well was then filled with 10% FBS DMEM and slide was stored at 37° C. and 5% CO2 for either 24 hrs for viability assays, 3 hrs for ERK activity assays, or 1 hour for visualization of septins/PI3K activity.
3D Light-Sheet Imaging. […] All images were saved in the OME-TIFF format.
3D Cell Image Analysis. Cell morphology and septin localization were analyzed principally via u-shape3D similar to the protocol described in Driscoll et al. Nature Methods. 16, 1037-1044 (2019), the disclosure of which is incorporated herein in its entirety. Briefly, 3D images were first deconvolved using either a Richardson-Lucy or Wiener algorithm with an experimentally measured point spread function. […] Cell surfaces were then represented as triangle meshes, and the mean surface curvature at every triangle was calculated according to methods described in Driscoll et al. Nature Methods. […] Septin and NRAS localization was measured from fluorescence images by extending a sphere of either 1 μm (for septins) or 2 μm (for NRAS) about each mesh triangle and mapping to the triangle the average intensity both within that sphere and the cell. Image intensity was not depth normalized prior to analysis, but was instead measured from the raw, undeconvolved image. […]
Cortical septin levels were quantified by measuring the mean cytoplasmic intensity of each cell using hand-drawn ROIs that excluded nuclei (performed with the FIJI ImageJ package), and then calculating for each cell its fraction of cortical voxels (intracellular voxels within 0.96 μm of the u-Shape3D-derived surface) that were higher than that cell's mean cytoplasmic intensity (performed using a MATLAB script). NRAS enrichment at the surface was quantified by first calculating the total amount of intracellular signal expected to be within 0.96 μm of the surface if the cell's signal was homogenously distributed between all voxels, and then calculating the percent change between this value and the observed value for each cell. […]

Cc1cncc2cccc(S(=O)(=O)N3CCCNC[C@@H]3C)c12 [H1152]
septin localization (cortical levels): pronounced effects on septin localization, reducing cortical levels

— patent US20250268980A1, “AN ANTICANCER THERAPY TARGETING RAS AND OTHER ONCOGENIC SIGNALS BY INHIBITION OF DYNAMIC BLEBBING AND/OR SEPTINS” (THE BOARD OF REGENTS OF THE UNIVERSITY OF TEXAS SYSTEM, priority 2022, published 2025)
